Measured values: US6921821B2, “Antagonists of melanin concentrating hormone receptor” (Abbott Laboratories, priority 2002, dated 2005)
Structures can show the parent of a compound that is named as a salt.

target: T1, murine MCHR (Mus musculus, UniProt Q8JZL2); experiment: Assay for release of intracellular calcium (FLIPR, Fluo-4), inhibition of MCH-induced Ca++ flux; assay type: cell-based; settings: test compound at a dose of 10 μM, HEK293 cells expressing the murine MCHR, read-out: inhibition of MCH (MCH induced Ca++ flux / fluorescence)
T1 construct: expressed in transfected cells; host or cells: HEK293
In short: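 HEK293 cells expressing murine MCHR were loaded with Fluo-4AM (2.5 μM) and given compound (40 μM stock in 4% DMSO), with 3 min monitoring for agonism. They were then challenged with mouse MCH (12 nM as added) and FLIPR fluorescence followed 3 min more. % inhibition of MCH-induced Ca++ flux was calculated against baseline and no-compound signals.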

T1 sequence (Q8JZL2 whole entry): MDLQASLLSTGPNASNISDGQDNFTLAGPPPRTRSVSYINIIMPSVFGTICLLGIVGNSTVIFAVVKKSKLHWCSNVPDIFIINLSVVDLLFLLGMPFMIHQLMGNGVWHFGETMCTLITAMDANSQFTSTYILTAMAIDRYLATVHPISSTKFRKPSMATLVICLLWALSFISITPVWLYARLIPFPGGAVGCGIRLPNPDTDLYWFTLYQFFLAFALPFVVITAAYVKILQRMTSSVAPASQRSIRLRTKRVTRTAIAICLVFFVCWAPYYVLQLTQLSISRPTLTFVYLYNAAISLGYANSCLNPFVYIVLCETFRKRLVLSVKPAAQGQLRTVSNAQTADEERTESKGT

inhibition at 10 µM | SMILES
≥ 50% | CC(c1ccc2ncccc2c1)N1CCC(Nc2cc(=O)oc3ccc(Cl)cc23)CC1 (racemic) [II-106, 6-Chloro-4-[1-(1-quinolin-6-yl-ethyl)-piperidin-4-ylamino]-chromen-2-one]
≥ 50% | COc1ccc2oc(=O)cc(N[C@H]3CCN(Cc4ccc5c(c4)OCO5)C[C@H]3C)c2c1 (stereo in doubt) [II-53, 4-(1-Benzo[1,3]dioxol-5-ylmethyl-3-methyl-piperidin-4-ylamino)-6-methoxy-chromen-2-one]
≥ 50% | COc1ccc2oc(=O)cc(NC3CCN(Cc4ccc5c(c4)OCCO5)CC3)c2c1 [II-64, 4-[1-(2,3-Dihydro-benzo[1,4]dioxin-6-ylmethyl)-piperidin-4-ylamino]-6-methoxy-chromen-2-one trifluoroacetate]
≥ 50% | COc1ccc2oc(=O)cc(NC3CCN(Cc4ccc(OCCCN5CCCCC5)c(F)c4)CC3)c2c1 [II-47, 4-{1-[3-Fluoro-4-(3-piperidin-1-yl-propoxy)-benzyl]-piperidin-4-ylamino}-6-methoxy-chromen-2-one; Double TFA Salt]
≥ 50% | COc1ccc2oc(=O)cc(NC3CCN(Cc4ccc(Cl)c(F)c4)CC3)c2c1 [II-58, 4-[1-(4-Chloro-3-fluoro-benzyl)-piperidin-4-ylamino]-6-methoxy-chromen-2-one trifluoroacetate]
≥ 50% | O=c1cc(NC2CCN(Cc3ccc4c(c3)OCO4)CC2)c2cc(Cl)c(Cl)cc2o1 [II-117, (4-Benzo[1,3]dioxol-5-ylmethyl-piperidin-4-ylamino)-6,7-dichloro-chromen-2-one]
≥ 50% | O=c1cc(NC2CCN(C/C=C/c3ccccc3F)CC2)c2ccccc2o1 [III-14, 4-{1-[3-(2-Fluoro-phenyl)-allyl]-piperidin-4-ylamino}-chromen-2-one]
≥ 50% | COc1ccc(CN2CCC(Nc3c(C(=O)N(C)C)c(=O)n(C)c4ccc(Cl)cc34)CC2)cc1F [Compound V-54, 6-Chloro-4-[1-(3-fluoro-4-methoxy-benzyl)-piperidin-4-ylamino]-1-methyl-2-oxo-1,2-dihydro-quinoline-3-carboxylic acid dimethylamide]
≥ 50% | O=c1cc(NC2CCN(C/C=C/c3ccccc3F)CC2)c2cc(Cl)ccc2o1 [III-56, 6-Chloro-4-{1-[3-(2-fluoro-phenyl)-allyl]-piperidin-4-ylamino}-chromen-2-one]
≥ 50% | C=Cc1ccc2oc(=O)cc(NC3CCN(Cc4ccc(C)c(C)c4)CC3)c2c1 [II-46, 4-{1-(3,4-Dimethyl-benzyl)-piperidin-4-ylamino}-6-vinyl-chromen-2-one]
≥ 50% | Cc1ccc2c(c1)c(NC1CCN(Cc3ccc4ccccc4c3)CC1)cc(=O)n2C [Compound V-22, 1,6-Dimethyl-4-(1-naphthalen-2-ylmethyl-piperidin-4-ylamino)-1H-quinolin-2-one]
≥ 50% | COc1ccc(CN2CCC(Nc3cc(=O)oc4ccc(OC)cc34)CC2)cc1 [II-39, 6-Methoxy-4-[1-(4-methoxy-benzyl)-piperidin-4-ylamino]-chromen-2-one trifluoroacetate]
≥ 50% | O=c1cc(NC2CCN(Cc3ccc4c(c3)OCO4)CC2)c2cc(Cl)ccc2o1 [II-4, 4-(1-Benzo[1,3]dioxol-5ylmethyl-piperidin-4-ylamino)-6-chloro-chromen-2-one]
≥ 50% | COc1ccc2oc(=O)cc(NC3CCN(Cc4ccc5ncccc5c4)CC3)c2c1 [II-112, 6-Methoxy-4-(1-quinolin-6-ylmethyl-piperidin-4-ylamino)-chromen-2-one]
≥ 50% | Cc1ccc2oc(=O)cc(NC3CCN(C/C=C/c4ccccc4)CC3)c2c1 [III-6, 6-Methyl-4-[1-(3-phenyl-allyl)-piperidin-4-ylamino]-chromen-2-one]
≥ 50% | O=c1cc(NC2CCN(Cc3ccc4ccccc4c3)CC2)c2cc(Cl)ccc2o1 [II-2, 6—Chloro-4-(1-naphthalen-2-ylmethyl-piperidin-4-ylamino)-chromen-2-one]

Continued, compound first:

SMILES | inhibition at 10 µM
COc1ccc2oc(=O)cc(NC3CCN(Cc4ccc(Br)cc4)CC3)c2c1 [II-65, 4-[1-(4-Bromo-benzyl)-piperidin-4-ylamino]-6-methoxy-chromen-2-one trifluoroacetate] | ≥ 50%
CC(c1ccc(Cl)cc1)N1CCC(Nc2cc(=O)oc3ccc(Cl)cc23)CC1 (centres unmarked) [II-74, 6-Chloro-4-{1-[1-(4-chloro-phenyl)-ethyl]-piperidin-4-ylamino}-chromen-2-one] | ≥ 50%
COc1ccc2oc(=O)cc(NC3CCN(Cc4ccc(C)c(F)c4)CC3)c2c1 [II-105, 4-[1-(3-Fluoro-4-methyl-benzyl)-piperidin-4-ylamino]-6-methoxy-chromen-2-one trifluoroacetate] | ≥ 50%
O=C1CCCN1c1cc(Cl)cc2c(NC3CCN(Cc4ccc5c(c4)OCO5)CC3)cc(=O)oc12 [II-81] | ≥ 50%
COc1ccc2oc(=O)cc(NC3CCN(Cc4ccc(OC)c(F)c4)CC3)c2c1 [II-70, 4-[1-(3-Fluoro-4-methoxy-benzyl)-piperidin-4-ylamino]-6-methoxy-chromen-2-one trifluoroacetate] | ≥ 50%
COc1ccc2oc(=O)c(F)c(NC3CCN(Cc4ccc5c(c4)OCO5)CC3)c2c1 [II-26, 4-(1-Benzo{1,3}dioxol-5-ylmethyl-piperidin-4-ylamino)-3-fluoro-6-methoxychromene-2-one] | ≥ 50%
O=c1cc(NC2CCN(Cc3ccc4occc4c3)CC2)c2cc(Cl)ccc2n1Cc1ccccn1 [Compound V-26, 4-(1-Benzofuran-5-ylimethyl-piperidin-4-ylamino)-6-chloro-1-pyridin-2-ylmethyl-1H-quinolin-2-one] | ≥ 50%
O=c1cc(NC2CCN(Cc3ccc4c(c3)OCO4)CC2)c2cc(Cl)ccc2n1Cc1ccncc1 [Compound V-4, 4-(1-Benzo[1,3]dioxol-5-ylmethylpiperidin-4-ylamino)-6-chloro-1-pyridin-4-ylmethyl-1H-quinolin-2-one] | ≥ 50%
CCOc1ccc(CN2CCC(Nc3cc(=O)oc4ccc(OC)cc34)CC2)cc1 [II-80, 4-[1-(4-Ethoxy-benzyl)-piperidin-4-ylamino]-6-methoxy-chromen-2-one trifluoroacetate] | ≥ 50%
N#Cc1ccc2oc(=O)cc(NC3CCN(Cc4ccc5occc5c4)CC3)c2c1 [II-114, 4-(1-Benzofuran-5-ylmethyl-piperidin-4-ylamino)-2-oxo-2H-chromene-6-carbonitrile] | ≥ 50%
N#Cc1ccc2oc(=O)cc(NC3CCN(Cc4ccc5c(c4)OCO5)CC3)c2c1 [II-75, 4-(1-Benzo[1,3]dioxol-5-ylmethyl-piperidin-4-ylamino)-2-oxo-2H-chromene-6-carbonitrile] | ≥ 50%
Cn1c(=O)c(C#N)c(NC2CCN(Cc3ccc4c(c3)OCO4)CC2)c2cc(Cl)ccc21 [Compound V-51, 4-(1-Benzo[1,3]dioxol-5-ylmethyl-piperidin-4-ylamino)-6-chloro-1-methyl-2-oxo-1,2-dihydro-quinoline-3-carbonitrile] | ≥ 50%
C=Cc1ccc2oc(=O)cc(NC3CCN(Cc4ccc5c(c4)OCO5)CC3)c2c1 [II-35, 4-(1-Benzo[1,3]dioxol-5-ylmethyl-piperidin-4-ylamino)-6-vinyl-chromen-2-one] | ≥ 50%
O=c1cc(NC2CCN(Cc3ccc(Cl)cc3)CC2)c2cc(Cl)ccc2o1 [II-59, 6-Chloro-4-{1-(4-chloro-benzyl)-piperidin-4-ylamino}-chromen-2-one] | ≥ 50%
COC(=O)c1c(NC2CCN(Cc3ccc4ccccc4c3)CC2)c2cc(Cl)ccc2[nH]c1=O [Compound V-37, 6-Chloro-4-(1-naphthalen-2-ylmethyl-piperidin-4-ylamino)-2-oxo-1,2-dihydro-quinoline-3-carboxylic acid methyl ester] | ≥ 50%
C=Cc1ccc2oc(=O)cc(NC3CCN(Cc4ccc5c(c4)CCO5)CC3)c2c1 [II-87, 4-[1-(2,3-Dihydro-benzofuran-5-ylmethyl)-piperidin-4-ylamino]-6-vinyl-chromen-2-one] | ≥ 50%
O=c1cc(NC2CCN(Cc3ccc4c(c3)OCO4)CC2)c2cc(Cl)ccc2n1Cc1cc[n+]([O-])cc1 [Compound V-19, 4-(1-Benzo[1,3]dioxol-5-ylmethyl-piperidin-4-ylamino)-6-chloro-1-(1-oxy-pyridin-4-ylmethyl)-1H-quinolin-2-one] | ≥ 50%
CCc1ccc2c(c1)c(NC1CCN(Cc3ccc4occc4c3)CC1)cc(=O)n2CC [Compound V-28, 4-(1-Benzofuran-5-ylmethyl-piperidin-4-ylamino)-1,6-diethyl-1H-quinolin-2-one] | ≥ 50%
CN(C)C(=O)c1c(NC2CCN(Cc3ccc4occc4c3)CC2)c2cc(Cl)ccc2n(C)c1=O [Compound V-40, 4-(1-Benzofuran-5-ylmethyl-piperidin-4-ylamino)-6-chloro-1-methyl-2-oxo-1,2-dihydro-quinoline-3-carboxylic acid dimethylamide] | ≥ 50%
O=c1cc(NC2CCN(Cc3ccc4c(c3)OCO4)CC2)c2cc(OC(F)(F)F)ccc2o1 [II-96, 4-(1-Benzo[1,3]dioxol-5ylmethyl-piperidin-4-ylamino)-6-trifluoromethoxy-chromen-2-one] | ≥ 50%
COC(=O)c1c(NC2CCN(Cc3ccc4ccccc4c3)CC2)c2cc(Cl)ccc2n(C)c1=O [Compound V-30, 6-Chloro-1-methyl-4-(1-naphthalen-2-ylmethyl-piperidin-4-ylamino)-2-oxo-1,2-dihydro-quinoline-3-carboxylic acid methyl ester] | ≥ 50%
COc1ccc2oc(=O)cc(NC3CCN(Cc4ccc(C)cc4C)CC3)c2c1 [II-25, 4-[1-(2,4-Dimethyl-benzyl)-piperidin-4-ylamino]-6-methoxy-chromen-2-one trifluoroacetate] | ≥ 50%
